In general, IC50 refers to the midpoint of a concentration-inhibition curve. Higher therefore signals lower potency.

Drawing on patent US12528786B2, “Plasma kallikrein inhibitors” (Merck Sharp & Dohme LLC, priority 2020, dated 2026), this text covers IC50 for 28 molecules.

Each structure is given as a SMILES string.

The assay addresses T1, Human plasma kallikrein (Homo sapiens, UniProt P03952).
T1 construct: yields a heavy chain (371 amino acids) and a light chain (248 amino acids); purchased Enzyme Research Laboratories
Nature of the assay: Kallikrein Assay (fluorogenic substrate hydrolysis, AFC release). It counts as biochemical. As to conditions: purified Human plasma kallikrein 0.5 nM; substrate Acetyl-K—P—R-AFC 100 mM; 50 mM HEPES pH 7.4. In a few lines: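 Purified human plasma kallikrein (0.5 nM final) with Acetyl-K-P-R-AFC substrate (final ≤0.2 Km) in 50 mM HEPES pH 7.4, 150 mM NaCl, 5 mM CaCl2, 0.1% PEG 8000, after enzyme–inhibitor equilibration; room temperature or 37° C. AFC fluorescence (405 Ex/510 Em nm) under linear conditions; IC50 by four-parameter fit, Ki via Cheng-Prusoff.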

T1 sequence (P03952 391-638 limits assumed): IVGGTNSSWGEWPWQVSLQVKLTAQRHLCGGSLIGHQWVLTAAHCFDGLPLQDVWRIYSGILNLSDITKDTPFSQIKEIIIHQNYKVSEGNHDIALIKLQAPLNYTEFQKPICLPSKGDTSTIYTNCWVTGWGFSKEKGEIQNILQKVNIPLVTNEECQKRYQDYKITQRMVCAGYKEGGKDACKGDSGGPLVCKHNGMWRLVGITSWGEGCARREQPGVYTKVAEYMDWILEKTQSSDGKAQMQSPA
T1 sequence (P03952 20-390 partner limits assumed): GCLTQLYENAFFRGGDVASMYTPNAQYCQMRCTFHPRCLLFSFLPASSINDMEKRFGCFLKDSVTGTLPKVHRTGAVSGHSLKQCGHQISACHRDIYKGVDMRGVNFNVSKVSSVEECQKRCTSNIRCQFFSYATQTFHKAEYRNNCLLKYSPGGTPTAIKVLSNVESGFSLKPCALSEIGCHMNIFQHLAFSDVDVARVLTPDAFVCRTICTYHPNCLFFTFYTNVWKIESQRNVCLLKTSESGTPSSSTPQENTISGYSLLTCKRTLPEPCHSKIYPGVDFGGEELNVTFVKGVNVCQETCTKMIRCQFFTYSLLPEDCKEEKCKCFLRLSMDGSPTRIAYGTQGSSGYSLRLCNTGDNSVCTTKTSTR

Regarding `Cc1c([C@H](C)n2cc(C(=O)NC3CC(c4cccc(Cl)c4)C3O)nn2)cnc(N2C[C@H]3C[C@H]3C2=O)c1C` (single isomer, unassigned) [Example 151, N-((1R,2R,3R or 1S,2S,3S))-3-(3-chlorophenyl)-2-hydroxycyclobutyl)-1-((S)-1-(4,5-dimethyl-6-((1R,5S)-2-oxo-3-azabicyclo[3.1.0]hexan-3-yl)pyridin-3-yl)ethyl)-1H-1,2,3-triazole-4-carboxamide], the IC50 stood at 1.1 nM.

For `Cc1c([C@H](C)n2cc(C(=O)NC3CC(c4cccc(Cl)c4)C3O)nn2)cnc(N2C[C@H]3C[C@H]3C2=O)c1C` (single isomer, unassigned) [Example 152, N-((1S,2S,3S or 1R,2R,3R))-3-(3-chlorophenyl)-2-hydroxycyclobutyl)-1-((S)-1-(4,5-dimethyl-6-((1R,5S)-2-oxo-3-azabicyclo[3.1.0]hexan-3-yl)pyridin-3-yl)ethyl)-1H-1,2,3-triazole-4-carboxamide], the half-maximal inhibitory concentration (IC50) was 78 nM. In turn, `N#Cc1ccc(Cl)cc1[C@H]1C[C@@H](NC(=O)c2cn(C(CO)c3ccc(N4C[C@H]5C[C@H]5C4=O)nc3)nn2)C1` (single isomer, unassigned) [Example 154] displayed an IC50 of 29.6 nM.

In turn, `N#Cc1ccc(Cl)cc1[C@H]1C[C@@H](NC(=O)c2cn([C@H](CO)c3ccc(N4C[C@H]5C[C@H]5C4=O)nc3)nn2)C1` (single isomer, unassigned) [Example 155] registered an IC50 of 28 nM.

For the molecule `Cc1cc([C@@](C)(O)c2cc(C(=O)N[C@H]3C[C@@H](c4cc(Cl)ccc4C#N)C3)no2)cnc1N1C[C@H]2C[C@H]2C1=O` (single isomer, unassigned) [Example 156], inhibition was half-maximal at 0.7 nM (IC50).

Molecule `Cc1cc([C@](C)(O)c2cc(C(=O)N[C@H]3C[C@@H](c4cc(Cl)ccc4C#N)C3)no2)cnc1N1C[C@H]2C[C@H]2C1=O` (single isomer, unassigned) [Example 157] showed an IC50 of 24 nM. In turn, `Cc1c([C@@H](C)n2cc(C(=O)N[C@H]3C[C@@H](c4cc(Cl)ccc4C#N)C3)nn2)nc(N2C[C@H]3C[C@H]3C2=O)n1C` (single isomer, unassigned) [Example 161] gave an IC50 of 95.9 nM.

The molecule `Cc1c([C@H](C)n2cc(C(=O)N[C@H]3C[C@@H](c4cc(Cl)ccc4C#N)C3)nn2)nc(N2C[C@H]3C[C@H]3C2=O)n1C` (single isomer, unassigned) [Example 162] returned an IC50 of 3.7 nM. Consider `Cc1c([C@@H](C)n2cc(C(=O)NC3CC(c4cc(Cl)ccc4C#N)C3)nn2)cnc(N2C[C@H]3C[C@H]3C2=O)c1O` (single isomer, unassigned) [Example 163], for which inhibition was half-maximal at 1.1 nM (IC50).

Regarding `Cc1c(N2C[C@H]3C[C@H]3C2=O)ncc([C@@H](C)n2cc(C(=O)NC3CC(c4cc(Cl)ccc4C#N)C3)cn2)c1F` (single isomer, unassigned) [Example 165], 1 nM corresponded to half-maximal inhibition (IC50). Molecule `Cc1c(N2C[C@H]3C[C@H]3C2=O)ncc(C(C)n2cc(C(=O)NC3CC(c4cc(Cl)ccc4C#N)C3)cn2)c1F` (single isomer, unassigned) [Example 166] gave a half-inhibitory concentration (IC50) of 1.2 nM.

`Cc1c([C@@H](C)n2cc(C(=O)NC3CC(c4cc(Cl)ccc4C#N)C3)cn2)cnc(N2C[C@H]3C[C@H]3C2=O)c1Cl` (single isomer, unassigned) [Example 167] gave a 50% inhibitory concentration (IC50) of 1.9 nM. As for `Cc1c(C(C)n2cc(C(=O)NC3CC(c4cc(Cl)ccc4C#N)C3)cn2)cnc(N2C[C@H]3C[C@H]3C2=O)c1Cl` (single isomer, unassigned) [Example 168], the IC50 amounted to 0.1 nM. `Cc1cc(N2C[C@H]3C[C@H]3C2=O)ncc1[C@@H](C)n1cc(C(=O)NC2CC(c3cc(Cl)ccc3C#N)C2)c([C@H](C)O)n1` (single isomer, unassigned) [Example 169] had a 50% inhibitory concentration (IC50) of 0.8 nM.

In turn, `Cc1cc(N2C[C@H]3C[C@H]3C2=O)ncc1[C@@H](C)n1cc(C(=O)NC2CC(c3cc(Cl)ccc3C#N)C2)c(C(C)O)n1` (single isomer, unassigned) [Example 170] had an IC50 of 0.7 nM. The molecule `Cc1cc(N2C[C@H]3C[C@H]3C2=O)ncc1C(C)n1cc(C(=O)NC2CC(c3cc(Cl)ccc3C#N)C2)c(C(C)O)n1` (single isomer, unassigned) [Example 171] showed an IC50 of 5.6 nM. Then `N#Cc1ccc(Cl)cc1[C@H]1C[C@@H](NC(=O)c2cnn(Cc3cnc(N4C[C@@H]5C[C@@H]5C4=O)nc3)c2)C1` (stereo in doubt) [Example 1, N-((cis)-3-(5-chloro-2-cyanophenyl)cyclobutyl)-1-((2-((1S,5R)-2-oxo-3-azabicyclo[3.1.0]hexan-3-yl)pyrimidin-5-yl)methyl)-1H-pyrazole-4-carboxamide], with 8.6 nM; and `Cc1cc(N2C[C@H]3C[C@H]3C2=O)ncc1C(C)n1cc(C(=O)NC2CC(c3cc(Cl)ccc3C#N)C2)c([C@H](C)O)n1` (stereo in doubt) [Example 172, N-((cis)-3-(5-chloro-2-cyanophenyl)cyclobutyl)-3-((S)-1-hydroxyethyl)-1-((S)-1-(4-methyl-6-((1R,5S)-2-oxo-3-azabicyclo[3.1.0]hexan-3-yl)pyridin-3-yl)ethyl)-1H-pyrazole-4-carboxamide], with 11.1 nM; and `N#Cc1ccc(Cl)cc1[C@H]1C[C@@H](NC(=O)c2cnn(Cc3cnc(N4C[C@H]5C[C@H]5C4=O)nc3)c2)C1` [Example 2, N-((cis)-3-(5-chloro-2-cyanophenyl)cyclobutyl)-1-((2-((1R,5S)-2-oxo-3-azabicyclo[3.1.0]hexan-3-yl)pyrimidin-5-yl)methyl)-1H-pyrazole-4-carboxamide], with 10.6 nM. For `Cc1cc(N2C[C@H]3C[C@H]3C2=O)ncc1Cn1cc(C(=O)N[C@H]2C[C@@H](c3cc(Cl)ccc3C#N)C2)cn1` [Example 37, N-((cis)-3-(5-chloro-2-cyanophenyl)cyclobutyl)-1-((4-methyl-6-((1R,5S)-2-oxo-3-azabicyclo[3.1.0]hexan-3-yl)pyridin-3-yl)methyl)-1H-pyrazole-4-carboxamide], 0.7 nM corresponded to half-maximal inhibition (IC50). Molecule `Cc1cc(N2C[C@H]3C[C@H]3C2=O)ncc1Cn1cc(C(=O)N[C@H]2C[C@@H](c3cc(Cl)ccc3C#N)C2)c(C(F)F)n1` [Example 38, N-((cis)-3-(5-chloro-2-cyanophenyl)cyclobutyl)-3-(difluoromethyl)-1-((4-methyl-6-((1R,5S)-2-oxo-3-azabicyclo[3.1.0]hexan-3-yl)pyridin-3-yl)methyl)-1H-pyrazole-4-carboxamide] registered a half-inhibitory concentration (IC50) of 1.1 nM. As for `Cc1cc(C(C)(C)n2cc(C(=O)N[C@H]3C[C@@H](c4cc(Cl)ccc4C#N)C3)nn2)cnc1N1C[C@H]2C[C@H]2C1=O` [Example 61, N-((cis)-3-(5-chloro-2-cyanophenyl)cyclobutyl)-1-(2-(5-methyl-6-((1R,5S)-2-oxo-3-azabicyclo[3.1.0]hexan-3-yl)pyridin-3-yl)propan-2-yl)-1H-1,2,3-triazole-4-carboxamide], half-maximal inhibition (IC50) was put at 10.1 nM. `N#Cc1ccc(Cl)cc1[C@H]1C[C@@H](NC(=O)c2cn(Cc3cnc(N4C[C@H]5C[C@H]5C4=O)nc3)nn2)C1` [Example 79, N-((cis)-3-(5-chloro-2-cyanophenyl)cyclobutyl)-1-((2-((1R,5S)-2-oxo-3-azabicyclo[3.1.0]hexan-3-yl)pyrimidin-5-yl)methyl)-1H-1,2,3-triazole-4-carboxamide] displayed an IC50 of 16.1 nM. `Cc1c([C@H](C)n2cc(C(=O)N[C@H]3C[C@@](C)(c4cc(Cl)ccc4C#N)C3)nn2)cnc(N2C[C@H]3C[C@H]3C2=O)c1C` [Example 141, N-((cis)-3-(5-chloro-2-cyanophenyl)-3-methylcyclobutyl)-1-((S)-1-(4,5-dimethyl-6-((1R,5S)-2-oxo-3-azabicyclo[3.1.0]hexan-3-yl)pyridin-3-yl)ethyl)-1H-1,2,3-triazole-4-carboxamide]: the IC50 was 0.2 nM. The molecule `Cc1c([C@H](C)n2cc(C(=O)N[C@H]3C[C@@](C)(c4cc(Cl)ccc4C(N)=O)C3)nn2)cnc(N2C[C@H]3C[C@H]3C2=O)c1C` [Example 142, N-((cis)-3-(2-carbamoyl-5-chlorophenyl)-3-methylcyclobutyl)-1-((S)-1-(4,5-dimethyl-6-((1R,5S)-2-oxo-3-azabicyclo[3.1.0]hexan-3-yl)pyridin-3-yl)ethyl)-1H-1,2,3-triazole-4-carboxamide] showed an IC50 of 0.4 nM. `Cc1ccc(C#N)c([C@]2(C)C[C@H](NC(=O)c3cn([C@@H](C)c4cnc(N5C[C@H]6C[C@H]6C5=O)c(C)c4C)nn3)C2)c1` [Example 143, N-((cis)-3-(2-cyano-5-methylphenyl)-3-methylcyclobutyl)-1-((S)-1-(4,5-dimethyl-6-((1R,5S)-2-oxo-3-azabicyclo[3.1.0]hexan-3-yl)pyridin-3-yl)ethyl)-1H-1,2,3-triazole-4-carboxamide] returned a half-maximal inhibitory concentration (IC50) of 0.2 nM. The result for `Cc1cc(N2C[C@H]3C[C@H]3C2=O)ncc1[C@H](C)n1cc(C(=O)N[C@H]2C[C@@](C)(c3cc(Cl)ccc3C(N)=O)C2)nn1` [Example 144, N-((cis)-3-(2-carbamoyl-5-chlorophenyl)-3-methylcyclobutyl)-1-((S)-1-(4-methyl-6-((1R,5S)-2-oxo-3-azabicyclo[3.1.0]hexan-3-yl)pyridin-3-yl)ethyl)-1H-1,2,3-triazole-4-carboxamide] reads 1 nM; that for `[2H][C@]1(c2cc(Cl)ccc2C#N)C[C@@H](NC(=O)c2cn([C@@H](C)c3cnc(N4C[C@H]5C[C@H]5C4=O)cc3C)nn2)C1` [Example 147, N-((cis)-3-(5-chloro-2-cyanophenyl)cyclobutyl-3-d)-1-((S)-1-(4-methyl-6-((1R,5S)-2-oxo-3-azabicyclo[3.1.0]hexan-3-yl)pyridin-3-yl)ethyl)-1H-1,2,3-triazole-4-carboxamide], 0.6 nM.
